Assay results: patent US20170368055A1, “METHODS FOR TREATING INFECTIONS” (Melinta Therapeutics, Inc., priority 2014, published 2017)
Where a name gives a salt, the structure may show the parent alone.

Assays:
[1] = Clinical trial of oral and intravenous-then-oral delafloxacin regimens: adverse event reporting, incidence of diarrhea; format: in vivo, human; details: for Abdominal Pain, subjects reporting, number (%) / Diarrhea, subjects reporting, number (%) / Gastrointestinal disorders, subjects reporting, number (%) / Nausea, subjects reporting, number (%): n = 20, safety population; for Percentage of subjects who reported diarrhea: oral capsules
[2] = Phase 1 single-dose crossover study: treatment-emergent adverse events; format: in vivo, human
Experimental: The pharmacokinetics and relative bioavailabilities of a 300 mg delafloxacin intravenous dosage form according to Example 1 and a 450 mg dose of oral delafloxacin according to Example 4 were measured in a Phase 1, single-dose, open-label, randomized, 2-period, 2-sequence crossover study. 56 healthy subjects received a single 450-mg dose of oral delafloxacin and a single 300-mg delafloxacin IV infusion in 1 of 2 treatment sequences. Plasma samples were analyzed for delafloxacin concentrations with a validated LC-MS/MS method. Pharmacokinetic parameters were calculated using noncompartmental methods.
16 treatment-emergent AEs (TEAE) were reported, the most frequent of which were headache (5.4%), followed by diarrhea (3.6%). 2 TEAEs were considered moderate in severity, but the remainders were considered mild, and none led to study discontinuation.

[3] = Regimen C: 300 mg IV then 400 mg oral capsules
[4] = Regimens A/B: 400-mg oral capsules (4 × 100-mg)
[5] = 56 healthy subjects, single 450-mg oral dose and single 300-mg IV infusion

| SMILES | Abdominal Pain, subjects reporting, number (%) [1, 3] | Diarrhea, subjects reporting, number (%) [1, 3] | Gastrointestinal disorders, subjects reporting, number (%) [1, 3] | Nausea, subjects reporting, number (%) [1, 3] | Abdominal Pain, subjects reporting, number (%) [1, 4] | Diarrhea, subjects reporting, number (%) [1, 4] | Gastrointestinal disorders, subjects reporting, number (%) [1, 4] | Nausea, subjects reporting, number (%) [1, 4] | Side effects reported ([1]; group with intravenous administration followed by oral treatment) | Tolerability ([1]; intravenous formulation (300 mg, 3 days) followed by oral formulation (400 mg BID, 4 days)) | Side effects as compared to all-oral formulations ([1]; intravenous formulation followed by oral formulation) | Percentage of subjects who reported diarrhea [1] | Diarrhea TEAE frequency [2, 5] | Headache TEAE frequency [2, 5] | Number of treatment-emergent AEs (TEAE) reported [2, 5] | TEAEs that led to study discontinuation ([2]; in vivo) | Number of TEAEs considered moderate in severity ([2]; remainders considered mild) |
| --- | --- | --- | --- | --- | --- | --- | --- | --- | --- | --- | --- | --- | --- | --- | --- | --- | --- |
| CNC[C@H](O)[C@@H](O)[C@H](O)[C@H](O)CO.Nc1nc(-n2cc(C(=O)O)c(=O)c3cc(F)c(N4CC(O)C4)c(Cl)c32)c(F)cc1F [Meglumine Salt, D-glucitol, 1-deoxy-1-(methylamino)-, 1-(6-amino-3,5-difluoro-2-pyridinyl)-8-chloro-6-fluoro-1,4-dihydro-7-(3-hydroxy-1-azetidinyl)-4-oxo-3-quinolinecarboxylate] | 0 | 0 | 0 | 0 | 0 | 3 (15.0%) | 5 (25.0%) | 0 | No side effect | well tolerated | reduced side effects | 15.0% | – | – | – | – | – |
| Nc1nc(-n2cc(C(=O)O)c(=O)c3cc(F)c(N4CC(O)C4)c(Cl)c32)c(F)cc1F [Potassium Salt] | – | – | – | – | 2 (10.0%) | 3 (15.0%) | 3 (15.0%) | 1 (5.0%) | – | – | – | 15.0% | – | – | – | – | – |
| Nc1nc(-n2cc(C(=O)O)c(=O)c3cc(F)c(N4CC(O)C4)c(Cl)c32)c(F)cc1F [delafloxacin, 1-(6-amino-3,5-difluoro-2-pyridinyl)-8-chloro-6-fluoro-1,4-dihydro-7-(3-hydroxy-1-azetidinyl)-4-oxo-3-quinolinecarboxylic acid] | – | – | – | – | – | – | – | – | – | – | – | – | 3.6% | 5.4% | 16 | none | 2 |
